The test system of this test is BDF1 mice, s.c. Lewis lung carcinoma, T/C %. Description: NCI In Vivo Anticancer Drug Screen. Data for tumor model Lewis Lung Carcinoma (subcutaneous) in B6D2F1 (BDF1) mice. In outline: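 First, mice carry a transplantable tumor. Next, groups receive either compound or vehicle. Finally, survival or tumor dimensions in the dosed animals are divided by the corresponding control figure.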

Where [1] appears, read: endpoint: mean tumor weight, dose: 400.0 mg/kg/injection, schedule: Q01DX011 (ip), vehicle: other, higher = larger tumour.
[2] abbreviates: endpoint: mean tumor weight, dose: 600.0 mg/kg/injection, schedule: Q01DX011 (ip), vehicle: other, higher = larger tumour.
[3] abbreviates: endpoint: median survival time, dose: 25.0 mg/kg/injection, schedule: Q01DX009 (ip), vehicle: Klucel (hydroxypropylcellulose) (HPC), higher = longer survival.
Setting [4] is: endpoint: median survival time, dose: 6.25 mg/kg/injection, schedule: Q01DX009 (ip), vehicle: Klucel (hydroxypropylcellulose) (HPC), higher = longer survival.
The mark [5] stands for this setting: endpoint: median survival time, dose: 12.5 mg/kg/injection, schedule: Q01DX009 (ip), vehicle: Klucel (hydroxypropylcellulose) (HPC), higher = longer survival.
[6] abbreviates: endpoint: mean tumor weight, dose: 50.0 mg/kg/injection, schedule: Q01DX011 (ip), vehicle: saline, higher = larger tumour.
Where [7] appears, read: endpoint: mean tumor weight, dose: 100.0 mg/kg/injection, schedule: Q01DX011 (ip), vehicle: saline, higher = larger tumour.

The structures appear in SMILES notation. Several values for one entry are separate records, joined by “and”; a condition that tells them apart may be missing. Identical values can stand only once. Records with an inconclusive call do not appear.

As for `CCN(CC)Cc1c(O)ccc2c3c(c(=O)oc12)CCCC3`, the T/C reads like this: (endpoint: median survival time, dose: 29.0 mg/kg/injection, schedule: Q01DX009 (ip), vehicle: Klucel (hydroxypropylcellulose) (HPC), higher = longer survival) 99 % of control; (endpoint: median survival time, dose: 58.0 mg/kg/injection, schedule: Q01DX009 (ip), vehicle: Klucel (hydroxypropylcellulose) (HPC), higher = longer survival) 94 % of control.
Regarding `O=C(CP(=O)(O)O)NC(CC(=O)OCc1ccccc1)C(=O)OCc1ccccc1` (stereo not given), the T/C (endpoint: median survival time, dose: 50.0 mg/kg/injection, schedule: Q01DX004 (ip), vehicle: saline, higher = longer survival) is 114 % of control and 120 % of control; the T/C (endpoint: median survival time, dose: 100.0 mg/kg/injection, schedule: Q01DX004 (ip), vehicle: saline, higher = longer survival) is 120 % of control and 118 % of control; the T/C (endpoint: median survival time, dose: 200.0 mg/kg/injection, schedule: Q01DX004 (ip), vehicle: saline, higher = longer survival) is 109 % of control; the T/C (endpoint: median survival time, dose: 400.0 mg/kg/injection, schedule: Q01DX004 (ip), vehicle: saline, higher = longer survival) is 109 % of control; the T/C (endpoint: median survival time, dose: 800.0 mg/kg/injection, schedule: Q01DX004 (ip), vehicle: saline, higher = longer survival) was 116 % of control.
Regarding `CC(C)=CCC1=C(O)c2ccccc2C(=O)C1=O`, the T/C was 71 % of control (endpoint: mean tumor weight, dose: 45.0 mg/kg/injection, schedule: Q01DX011 (ip), vehicle: water, higher = larger tumour); 85 % of control (endpoint: mean tumor weight, dose: 67.0 mg/kg/injection, schedule: Q01DX011 (ip), vehicle: water, higher = larger tumour); 93 % of control (endpoint: mean tumor weight, dose: 100.0 mg/kg/injection, schedule: Q01DX011 (ip), vehicle: water, higher = larger tumour).
As to `COc1cc(NC(=O)CN(CCCl)CCCl)cc(OC)c1OC`, the T/C is 88 % of control (endpoint: median survival time, dose: 50.0 mg/kg/injection, schedule: Q01DX009 (ip), vehicle: saline with Tween-80, higher = longer survival); 98 % of control (endpoint: median survival time, dose: 100.0 mg/kg/injection, schedule: Q01DX009 (ip), vehicle: saline with Tween-80, higher = longer survival); 94 % of control (endpoint: median survival time, dose: 200.0 mg/kg/injection, schedule: Q01DX009 (ip), vehicle: saline with Tween-80, higher = longer survival).
For `Oc1ccc(Nc2ccnc3cc(Cl)ccc23)cc1CN(CCCl)CCCl`, the T/C (endpoint: median survival time, dose: 2.5 mg/kg/injection, schedule: Q01DX009 (ip), vehicle: saline, higher = longer survival) is 108 % of control.
Consider `O=C(CCBr)N1CCN(C(=O)CCBr)CC1`, for which the T/C is, setting by setting: (endpoint: median survival time, dose: 2.5 mg/kg/injection, schedule: Q01DX009 (ip), vehicle: saline with Tween-80, higher = longer survival) 105 % of control; (endpoint: median survival time, dose: 5.0 mg/kg/injection, schedule: Q01DX009 (ip), vehicle: saline with Tween-80, higher = longer survival) 105 % of control; (endpoint: median survival time, dose: 10.0 mg/kg/injection, schedule: Q01DX009 (ip), vehicle: saline with Tween-80, higher = longer survival) 109 % of control; (endpoint: median survival time, dose: 20.0 mg/kg/injection, schedule: Q01DX009 (ip), vehicle: saline with Tween-80, higher = longer survival) 109 % of control; (endpoint: median survival time, dose: 40.0 mg/kg/injection, schedule: Q01DX009 (ip), vehicle: saline with Tween-80, higher = longer survival) 106 % of control; (endpoint: median survival time, dose: 80.0 mg/kg/injection, schedule: Q01DX009 (ip), vehicle: saline with Tween-80, higher = longer survival) 102 % of control.
As to `COc1cc2c(c(OC)c1OC)-c1ccc(OC)c(=O)cc1[C@@H](NC(=O)CF)CC2`, the T/C was 100 % of control (endpoint: median survival time, dose: 0.04 mg/kg/injection, schedule: Q01DX009 (ip), vehicle: saline with Tween-80, higher = longer survival); 95 % of control (endpoint: median survival time, dose: 0.09 mg/kg/injection, schedule: Q01DX009 (ip), vehicle: saline with Tween-80, higher = longer survival); 95 % of control (endpoint: median survival time, dose: 0.18 mg/kg/injection, schedule: Q01DX009 (ip), vehicle: saline with Tween-80, higher = longer survival).
In the case of `CC(=O)OCC1CCC(NC(=O)N(CCCl)N=O)CC1` (stereo not given), the T/C (endpoint: median survival time, dose: 8.0 mg/kg/injection, schedule: Q01DX001 (ip), vehicle: Klucel (hydroxypropylcellulose) (HPC), higher = longer survival) was 112 % of control; the T/C (endpoint: median survival time, dose: 12.0 mg/kg/injection, schedule: Q01DX001 (ip), vehicle: Klucel (hydroxypropylcellulose) (HPC), higher = longer survival) is 124 % of control; the T/C (endpoint: median survival time, dose: 18.0 mg/kg/injection, schedule: Q01DX001 (ip), vehicle: Klucel (hydroxypropylcellulose) (HPC), higher = longer survival) is 163 % of control; the T/C (endpoint: median survival time, dose: 26.0 mg/kg/injection, schedule: Q01DX001 (ip), vehicle: Klucel (hydroxypropylcellulose) (HPC), higher = longer survival) is 160 % of control; the T/C (endpoint: median survival time, dose: 40.0 mg/kg/injection, schedule: Q01DX001 (ip), vehicle: Klucel (hydroxypropylcellulose) (HPC), higher = longer survival) was 104 % of control.
For the compound `Clc1ncnc2c1ncn2C1CCCO1` (stereo not given), the T/C (endpoint: mean tumor weight, dose: 25.0 mg/kg/injection, schedule: Q01DX011 (ip), vehicle: other, higher = larger tumour) is 91 % of control; the T/C (endpoint: mean tumor weight, dose: 50.0 mg/kg/injection, schedule: Q01DX011 (ip), vehicle: other, higher = larger tumour) is 108 % of control; the T/C (endpoint: mean tumor weight, dose: 100.0 mg/kg/injection, schedule: Q01DX011 (ip), vehicle: other, higher = larger tumour) was 81 % of control; the T/C (endpoint: mean tumor weight, dose: 200.0 mg/kg/injection, schedule: Q01DX011 (ip), vehicle: other, higher = larger tumour) is 51 % of control and 62 % of control; the T/C under setting [1] was 57 % of control; the T/C under setting [2] is 42 % of control.
With `COc1cc(-c2cc(=O)c3c(OC)c(OC)c(OC)c(OC)c3o2)cc(OC)c1OC`, the T/C (endpoint: mean tumor weight, dose: 50.0 mg/kg/injection, schedule: Q01DX010 (sc), vehicle: steriod suspending solution, higher = larger tumour) was 87 % of control; the T/C (endpoint: mean tumor weight, dose: 100.0 mg/kg/injection, schedule: Q01DX010 (sc), vehicle: steriod suspending solution, higher = larger tumour) was 102 % of control; the T/C (endpoint: mean tumor weight, dose: 200.0 mg/kg/injection, schedule: Q01DX010 (sc), vehicle: steriod suspending solution, higher = larger tumour) was 97 % of control.
With `O=NN(CCCl)C(=O)Nc1cccc(O)c1`, the T/C under setting [3] is 116 % of control.
In the case of `C[C@]12CC[C@H]3[C@@H](CC[C@]4(O)C[C@@H](O)CC[C@]34/C=N/O)[C@@]1(O)CC[C@@H]2C1=COC(=O)C1`, the T/C by setting is: (endpoint: mean tumor weight, dose: 1.87 mg/kg/injection, schedule: Q01DX011 (ip), vehicle: carboxymethylcellulose (CMC), higher = larger tumour) 34 % of control; (endpoint: mean tumor weight, dose: 3.75 mg/kg/injection, schedule: Q01DX011 (ip), vehicle: carboxymethylcellulose (CMC), higher = larger tumour) 58 % of control; (endpoint: mean tumor weight, dose: 15.0 mg/kg/injection, schedule: Q01DX011 (ip), vehicle: carboxymethylcellulose (CMC), higher = larger tumour) 92 % of control; (endpoint: mean tumor weight, dose: 30.0 mg/kg/injection, schedule: Q01DX011 (ip), vehicle: carboxymethylcellulose (CMC), higher = larger tumour) 61 % of control.
With `Nc1nc(-c2ccccc2N=NN2CCCC2)nc2ccccc12`, the T/C is 105 % of control under setting [4], 97 % of control under setting [5] and 103 % of control under setting [3].
Consider `Cc1cc2c(c3oc(C4(C)OC4C4OC4C)cc(=O)c13)C(=O)c1c(O)c(C3CC(C)(N(C)C)C(O)C(C)O3)cc(C3CC(N(C)C)C(O)C(C)O3)c1C2=O` (stereo not given), for which the T/C was 105 % of control (endpoint: median survival time, dose: 4.0 micrograms/kg/injection, schedule: Q01DX009 (ip), vehicle: DMSO, higher = longer survival); 108 % of control (endpoint: median survival time, dose: 8.0 micrograms/kg/injection, schedule: Q01DX009 (ip), vehicle: DMSO, higher = longer survival); 100 % of control (endpoint: median survival time, dose: 16.0 micrograms/kg/injection, schedule: Q01DX009 (ip), vehicle: DMSO, higher = longer survival).
For `C1=CC2(OCCO2)C2CC=CC3(OCCO3)C2C1` (stereo not given), the T/C runs as follows: under setting [4], 88 % of control; under setting [5], 100 % of control; under setting [3], 95 % of control and 97 % of control; (endpoint: median survival time, dose: 50.0 mg/kg/injection, schedule: Q01DX009 (ip), vehicle: Klucel (hydroxypropylcellulose) (HPC), higher = longer survival) 93 % of control; (endpoint: median survival time, dose: 100.0 mg/kg/injection, schedule: Q01DX009 (ip), vehicle: Klucel (hydroxypropylcellulose) (HPC), higher = longer survival) 106 % of control.
Take `c1ccc2c3c(ccc2c1)Sc1ccc2ccccc2c1N3`: the T/C is 78 % of control under setting [1]; 57 % of control under setting [2]; 57 % of control (endpoint: mean tumor weight, dose: 800.0 mg/kg/injection, schedule: Q01DX011 (ip), vehicle: other, higher = larger tumour).
Consider `OC1c2cc(Cl)ccc2-c2c(Cl)cc(Cl)cc21` (stereo not given), for which the T/C runs as follows: (endpoint: mean tumor weight, dose: 63.0 mg/kg/injection, schedule: Q01DX011 (ip), vehicle: carboxymethylcellulose (CMC), higher = larger tumour) 64 % of control; (endpoint: mean tumor weight, dose: 125.0 mg/kg/injection, schedule: Q01DX011 (ip), vehicle: carboxymethylcellulose (CMC), higher = larger tumour) 58 % of control; (endpoint: mean tumor weight, dose: 190.0 mg/kg/injection, schedule: Q01DX011 (ip), vehicle: carboxymethylcellulose (CMC), higher = larger tumour) 61 % of control.
Consider `O=C(O)c1cc(=O)cc(C(=O)O)o1`, for which the T/C (endpoint: mean tumor weight, dose: 25.0 mg/kg/injection, schedule: Q01DX011 (ip), vehicle: saline, higher = larger tumour) was 66 % of control; the T/C under setting [6] is 76 % of control; the T/C under setting [7] is 77 % of control.
With `CCS(=O)(=O)Nc1cccc(Nc2c3cccc(C)c3nc3c(C)cccc23)c1OC`, the T/C by setting is: (endpoint: median survival time, dose: 12.5 mg/kg/injection, schedule: Q01DX011 (ip), vehicle: saline with Tween-80, higher = longer survival) 111 % of control; (endpoint: median survival time, dose: 25.0 mg/kg/injection, schedule: Q01DX011 (ip), vehicle: saline with Tween-80, higher = longer survival) 101 % of control; (endpoint: median tumor weight (est.), dose: 12.5 mg/kg/injection, schedule: Q01DX011 (ip), vehicle: saline with Tween-80, higher = larger tumour) 82 % of control; (endpoint: median tumor weight (est.), dose: 25.0 mg/kg/injection, schedule: Q01DX011 (ip), vehicle: saline with Tween-80, higher = larger tumour) 44 % of control.
As for `CC1(C)[C@@H]2CC[C@]1(C)[C@H](O)C2`, the T/C was 100 % of control under setting [6]; 95 % of control under setting [7]; 79 % of control (endpoint: mean tumor weight, dose: 200.0 mg/kg/injection, schedule: Q01DX011 (ip), vehicle: saline, higher = larger tumour); 100 % of control (endpoint: mean tumor weight, dose: 400.0 mg/kg/injection, schedule: Q01DX011 (ip), vehicle: saline, higher = larger tumour).

The record behind these values is PubChem BioAssay AID270 (DTP/NCI, 2004).
